# Legend:
# [1] = tested on: Candida parapsilosis; assay: Antifungal activity against Candida parapsilosis ATCC 22019 by broth microdilution assay; assay type: functional; settings: Lodderomyces parapsilosis
# [2] = tested on: Pichia kudriavzevii; assay: Antifungal activity against Candida krusei ATCC 6258 by broth microdilution assay; assay type: functional
# [3] = tested on: Candida albicans; assay: Antifungal activity against Candida albicans ATCC 90028 by broth microdilution assay; assay type: functional
# [4] = tested on: Nakaseomyces glabratus; assay: Antifungal activity against Candida glabrata ATCC 90030 by broth microdilution assay; assay type: functional
# [5] = tested on: NIH3T3; assay: Cytotoxicity against mouse NIH/3T3 cells assessed as reduction in cell viability after 24 hrs by MTT assay; assay type: cell-based; settings: NIH3T3, 24 h
# [6] = tested on: Nakaseomyces glabratus; assay: Induction of apoptosis in Candida glabrata ATCC 90030 assessed as necrotic cells at antifungal MIC90 after 24 hrs by Annexin V/propidium iodide staining based flow cytometry (reference value: 0.3%); assay type: functional
# [7] = tested on: Candida parapsilosis; assay: Induction of apoptosis in Candida parapsilosis ATCC 22019 assessed as late apoptotic cells at antifungal MIC90 after 24 hrs by Annexin V/propidium iodide staining based flow cytometry (reference value: 0.9%); assay type: functional
# [8] = tested on: Candida parapsilosis; assay: Induction of apoptosis in Candida parapsilosis ATCC 22019 assessed as live cells at antifungal MIC90 after 24 hrs by Annexin V/propidium iodide staining based flow cytometry (reference value: 97.6%); assay type: functional
# [9] = tested on: Nakaseomyces glabratus; assay: Induction of apoptosis in Candida glabrata ATCC 90030 assessed as live cells at antifungal MIC90 after 24 hrs by Annexin V/propidium iodide staining based flow cytometry (reference value: 99.5%); assay type: functional
# [10] = tested on: Candida parapsilosis; assay: Induction of apoptosis in Candida parapsilosis ATCC 22019 assessed as early apoptotic cells at antifungal MIC90 after 24 hrs by Annexin V/propidium iodide staining based flow cytometry (reference value: 0.1%); assay type: functional
# [11] = tested on: Pichia kudriavzevii; assay: Induction of apoptosis in Candida krusei ATCC 6258 assessed as early apoptotic cells at antifungal MIC90 after 24 hrs by Annexin V/propidium iodide staining based flow cytometry (reference value: 0.5%); assay type: functional
# [12] = tested on: Nakaseomyces glabratus; assay: Induction of apoptosis in Candida glabrata ATCC 90030 assessed as early apoptotic cells at antifungal MIC90 after 24 hrs by Annexin V/propidium iodide staining based flow cytometry (reference value: 0%); assay type: functional
# [13] = tested on: Pichia kudriavzevii; assay: Induction of apoptosis in Candida krusei ATCC 6258 assessed as late apoptotic cells at antifungal MIC90 after 24 hrs by Annexin V/propidium iodide staining based flow cytometry (reference value: 1.4%); assay type: functional
# [14] = tested on: Candida parapsilosis; assay: Induction of apoptosis in Candida parapsilosis ATCC 22019 assessed as necrotic cells at antifungal MIC90 after 24 hrs by Annexin V/propidium iodide staining based flow cytometry (reference value: 1.4%); assay type: functional
# [15] = tested on: Candida albicans; assay: Induction of apoptosis in Candida albicans ATCC 90028 assessed as live cells at antifungal MIC90 after 24 hrs by Annexin V/propidium iodide staining based flow cytometry (reference value: 99.8%); assay type: functional
# [16] = tested on: Candida albicans; assay: Induction of apoptosis in Candida albicans ATCC 90028 assessed as late apoptotic cells at antifungal MIC90 after 24 hrs by Annexin V/propidium iodide staining based flow cytometry (reference value: 0%); assay type: functional
# [17] = tested on: Pichia kudriavzevii; assay: Induction of apoptosis in Candida krusei ATCC 6258 assessed as necrotic cells at antifungal MIC90 after 24 hrs by Annexin V/propidium iodide staining based flow cytometry (reference value: 0.9%); assay type: functional
# [18] = tested on: Candida albicans; assay: Induction of apoptosis in Candida albicans ATCC 90028 assessed as necrotic cells at antifungal MIC90 after 24 hrs by Annexin V/propidium iodide staining based flow cytometry (reference value: 0.2%); assay type: functional
# [19] = tested on: Nakaseomyces glabratus; assay: Induction of apoptosis in Candida glabrata ATCC 90030 assessed as late apoptotic cells at antifungal MIC90 after 24 hrs by Annexin V/propidium iodide staining based flow cytometry (reference value: 0.2%); assay type: functional
# [20] = tested on: Candida albicans; assay: Induction of apoptosis in Candida albicans ATCC 90028 assessed as early apoptotic cells at antifungal MIC90 after 24 hrs by Annexin V/propidium iodide staining based flow cytometry (reference value: 0%); assay type: functional
# [21] = tested on: Pichia kudriavzevii; assay: Induction of apoptosis in Candida krusei ATCC 6258 assessed as live cells at antifungal MIC90 after 24 hrs by Annexin V/propidium iodide staining based flow cytometry (reference value: 97.3%); assay type: functional
# [22] = tested on: Pichia kudriavzevii; assay: Induction of apoptosis in Candida krusei ATCC 6258 assessed as increase in late apoptotic cells at antifungal MIC90 by Annexin V/propidium iodide staining based flow cytometry; assay type: functional, organism-based; settings: TDE = time-dependent effect
# [23] = tested on: Candida albicans; assay: Induction of apoptosis in Candida albicans ATCC 90028 assessed as increase in late apoptotic cells at antifungal MIC90 by Annexin V/propidium iodide staining based flow cytometry; assay type: functional, organism-based; settings: TDE = time-dependent effect
# [24] = tested on: Nakaseomyces glabratus; assay: Induction of apoptosis in Candida glabrata ATCC 90030 assessed as increase in late apoptotic cells at antifungal MIC90 by Annexin V/propidium iodide staining based flow cytometry; assay type: functional, organism-based; settings: TDE = time-dependent effect
# [25] = tested on: Candida parapsilosis; assay: Induction of apoptosis in Candida parapsilosis ATCC 22019 assessed as increase in late apoptotic cells at antifungal MIC90 by Annexin V/propidium iodide staining based flow cytometry; assay type: functional, organism-based; settings: TDE = time-dependent effect
Compound,MIC90 [1],MIC90 [2],MIC90 [3],MIC90 [4],IC50 [5],Activity [6],Activity [7],Activity [8],Activity [9],Activity [10],Activity [11],Activity [12],Activity [13],Activity [14],Activity [15],Activity [16],Activity [17],Activity [18],Activity [19],Activity [20],also measured
COc1ccc(NC(=O)CSc2nnc(CCSc3nncn3C)o2)cc1,500 µg/mL,500 µg/mL,250 µg/mL,250 µg/mL,> 500 µg/mL,,,,,,,,,,,,,,,,
Cn1cnnc1SCCc1nnc(SCC(=O)Nc2nc3ccc(Cl)cc3s2)o1,62.5 µg/mL,500 µg/mL,125 µg/mL,500 µg/mL,422 µg/mL,,,,,,,,,,,,,,,,
Cn1cnnc1SCCc1nnc(SCC(=O)Nc2nc3ccccc3s2)o1,250 µg/mL,250 µg/mL,125 µg/mL,250 µg/mL,> 500 µg/mL,,,,,,,,,,,,,,,,
Cn1cnnc1SCCc1nnc(SCC(=O)Nc2ccccc2)o1,500 µg/mL,500 µg/mL,250 µg/mL,250 µg/mL,> 500 µg/mL,,,,,,,,,,,,,,,,
Clc1ccccc1C(c1ccccc1)(c1ccccc1)n1ccnc1 [CLOTRIMAZOLE],1.56 µg/mL,1.56 µg/mL,31.2 µg/mL,62.5 µg/mL,289 µg/mL,50.7%,6.4%,50.7%,46.3%,0.8%,0.6%,0.3%,12.4%,42.2%,56.7%,3.1%,54.3%,39.7%,2.7%,0.6%,Activity [21]: 32.6%
COc1ccc2nc(NC(=O)CSc3nnc(CCSc4nncn4C)o3)sc2c1,62.5 µg/mL,500 µg/mL,125 µg/mL,500 µg/mL,485 µg/mL,,,,,,,,,,,,,,,,
Cn1cnnc1SCCc1nnc(SCC(=O)Nc2nc3ccc([N+](=O)[O-])cc3s2)o1,62.5 µg/mL,500 µg/mL,125 µg/mL,500 µg/mL,> 500 µg/mL,,,,,,,,,,,,,,,,
Cn1cnnc1SCCc1nnc(SCC(=O)Nc2ccc(F)cc2)o1,500 µg/mL,500 µg/mL,250 µg/mL,250 µg/mL,> 500 µg/mL,,,,,,,,,,,,,,,,
CC(=O)N1CCN(c2ccc(OCC3COC(Cn4ccnc4)(c4ccc(Cl)cc4Cl)O3)cc2)CC1 (stereo not drawn) [KETOCONAZOLE],1.56 µg/mL,1.56 µg/mL,62.5 µg/mL,62.5 µg/mL,396 µg/mL,72%,15.2%,27%,23.7%,0.5%,0.3%,0.1%,8.3%,57.3%,35.3%,11.2%,67.7%,52.4%,4.1%,1.1%,Activity [21]: 23.8%
Cn1cnnc1SCCc1nnc(SCC(=O)Nc2ccc(Cl)cc2)o1,500 µg/mL,500 µg/mL,250 µg/mL,250 µg/mL,> 500 µg/mL,,,,,,,,,,,,,,,,
Cn1cnnc1SCCc1nnc(SCC(=O)Nc2nc3ccc(F)cc3s2)o1,62.5 µg/mL,62.5 µg/mL,62.5 µg/mL,62.5 µg/mL,> 500 µg/mL,17%,41.7%,40.5%,46.4%,0.1%,0%,0.1%,42.3%,17.7%,46.9%,39.5%,27.5%,13.5%,36.6%,0.1%,Activity [22]: Tde; Activity [23]: Tde; Activity [24]: Tde; Activity [25]: Tde; Activity [21]: 30.2%
Cn1cnnc1SCCc1nnc(SCC(=O)Nc2ccc([N+](=O)[O-])cc2)o1,125 µg/mL,125 µg/mL,62.5 µg/mL,62.5 µg/mL,> 500 µg/mL,19.1%,4.2%,93.4%,78.7%,0.3%,0.3%,0.4%,3.4%,4.2%,79.1%,13.5%,25.9%,7%,1.8%,0.4%,Activity [21]: 70.5%

# Reference: ChEMBL document CHEMBL4251611, “The synthesis, antifungal and apoptotic effects of triazole-oxadiazoles against Candida species” (Eur J Med Chem, 2018)
